Columns and labels:
[1] = target: T1, wild-type PDE5 catalytic domain (Homo sapiens, UniProt O76074); test: X-ray structure of wild-type PDE5 catalytic domain complexed with Sildenafil; details: X-ray structure of wild-type PDE5 complex; binding in the active site, blocking access for the cGMP substrate
T1 construct: Construction and Expression of PDE5 Wild-type Catalytic Domain (E534-N875); made in house; host or cells: baculovirus / insect cells (pFastbac1; Sf-9 for virus stocks, T.ni High5 named for expression)

[2] = target: T2, PDE5* (loop-swapped PDE5 catalytic domain) (Homo sapiens, UniProt O76074, C677D/E669N/H670S/H678E/I665L/I680V/INS676N/L675M/M681L/N661S/P671E/Q666I/Q674L/R658P/R667N/S663Q/S668T/Y664F); test: Soaking of inhibitor into C2 crystal form of PDE5* and X-ray structure determination; format: binding
T2 construct: Construction and Expression of PDE5* (E534-E858) in E. coli; made in house; host or cells: E. coli BL21 (DE3), pET21C
Description: Plate-shaped crystals of apo PDE5* obtained according to methods detailed in EXAMPLE 6 were transferred to a 20 μl drop of 0.1M sodium HEPES and 20% Polyethylene glycol 4000 in square microbridges. To this, 1.0 μl of a 20 mg/ml concentration of inhibitor dissolved in DMSO was added. Crystals were then transferred to a solution of 0.1M sodium HEPES pH 7.4, 20% Polyethylene glycol 4000 with 15% glycerol and then frozen during X-ray data collection.
X-ray diffraction data were collected with an RaxisIV image plate detector on an in-house FR-D rotating anode (Rigaku), with Osmic mirrors (MSC). All data were processed using the HKL package (Otwinowski & Minor, 1997).
Refinement was carried out in the resolution range 30-1.5 Å using CNX (Brünger et al., 1998) with the “mlf” maximum likelihood target function. Partial structure factors from a flat bulk-solvent model and anisotropic B-factor correction were supplied throughout the refinement.

| (fo-fc) electron density map at the active site region ([2]; PDE5* C2 crystal soaked with ligand, map contoured at 2.5σ, phases prior to incorporation of ligand) | mode of inhibition ([2]; X-ray structure of PDE5* complex, binding in the active site, blocking access for the cGMP substrate) | Compound | mode of inhibition [1] |
| --- | --- | --- | --- |
|  |  | CCCc1nn(C)c2c(=O)[nH]c(-c3cc(S(=O)(=O)N4CCN(C)CC4)ccc3OCC)nc12 [Sildenafil, 5-[2-ethoxy-5-(4-methyl-1-piperazinylsulphonyl)phenyl]-1-methyl-3-n-propyl-1,6-dihydro-7H-pyrazolo[4,3-d]pyrimidin-7-one] | competitive |
| clearly featured peak | competitive | CCCc1nn(C)c2c(=O)[nH]c(-c3ccccc3OCC)nc12 [UK-088,800, 5-(2-ethoxyphenyl)-1-methyl-3-propyl-1,6-dihydro-7H-pyrazolo[4,3-d]pyrimidin-7-one] |  |

Source: patent publication US20050202549A1, “Crystal structure” (Pfizer Inc, priority 2001, published 2005)
